Experiments:
[1] = target: T1, human sodium channels Nav 1.7 (Homo sapiens, UniProt Q15858); experiment: Automated whole-cell voltage-clamp (ScreenPatch 384P) sodium current block in CHO cells expressing Nav 1.7; format: cell-based; conditions: CHO cells stably expressing human Nav 1.7; whole cell patch clamp, inactivation step -40 mV 8 s, test step 0 mV (TP1A), room temperature; mean where tested in two or more assays; read-out: Nav1.7 IC50
T1 construct: expressed in transfected cells
Procedure: (§1) Biological assays were performed on Chinese hamster ovary (CHO) cells that express human sodium channels Nav 1.8 or Nav 1.7 in a stable manner.
(§2) The experimental protocol voltage-clamp using the whole cell configuration was established on the automated ScreenPatch© 384P platform (SP384PE, Nanion Technologies, Livingston, NJ) and the results were recorded with a Nanion 384-well Patch Clamp chip (NPC) (Nanion Technologies, Livingston, NJ).
(§3) Formula I compounds were diluted in eight concentrations in the extracellular solution composed of saline saline solution, buffered with HEPES (mM): NaCl, 137; KCl, 4; CaCl2, 3.8; MgCl2, 1; HEPES, 10; Glucose, 10; pH 7.4. The […], 50; CsF, 90; MgCl2, 5; EGTA, 5; HEPES, 10; pH 7.2. The duration of exposure of each compound with cells expressing Nav 1.7 or Nav 1.8 was at least five minutes, and the assays were performed at room temperature.
(§4) The measurements of the sodium currents of Nav 1.8 and Nav 1.7 were obtained using the voltage protocol described below.
(§5) A holding voltage of −100 mV was established followed by an inactivation voltage step at −40 mV for 8 seconds, followed by a step of −100 mV for 20 ms, followed by a 20 ms step for 10 mV for Nav 1.8 or 0 mV for Nav 1.7 (TP1A) before returning to the holding voltage of −100 mV.
(§6) The protocol was repeated at a frequency of 0.05 Hz and the amplitude of the current was quantified throughout the recording of the TP1A phase. The variation in the amplitude of the peak current was evaluated according to the formula described below, after exposing the cells expressing the channels to each concentration of the different compounds:
(§7) wherein ITP1A,basal and ITP1A,molecule represent the peaks of sodium current input into TP1A before exposure to the compound and in the presence of the compound, respectively.
(§8) The decrease in the amplitude of the peak current, after the exposure of the cells to the compounds, was used to calculate the percentage of relative blockage of the channels in relation to the positive control according to the formula below: […]
(§9) wherein % V and % CP represent the means of the values of current inhibition with a vehicle (DMSO) and positive controls, respectively. The sodium currents of the positive control were considered as 100%.
(§10) wherein [Test] represents the concentration of the molecule evaluated, CI50 is the concentration of the compound that generates half of the maximum inhibition, N is the Hill coefficient, and % Block′ is the percentage of sodium channel current (Nav 1.8 and Nav 1.7) blocked at each concentration of the molecule evaluated. Data were obtained by nonlinear regression (nonlinear least squares) with XLfit for Excel (Microsoft, Redmond, WA).
(§11) The compounds were tested in at least one assay to obtain the value of CI50. For compounds that were tested in two or more assays, the results are described as the means of the CI50 values.

[2] = target: T2, human sodium channels Nav 1.8 (Homo sapiens, UniProt Q9Y5Y9); experiment: Automated whole-cell voltage-clamp (ScreenPatch 384P) sodium current block in CHO cells expressing Nav 1.8; format: cell-based; conditions: CHO cells stably expressing human Nav 1.8; whole cell patch clamp, inactivation step -40 mV 8 s, test step 10 mV (TP1A), room temperature; mean where tested in two or more assays; read-out: Nav1.8 IC50
T2 construct: expressed in transfected cells
Procedure: as §1, §2, §3, §4, §5, §6, §7, §8, §9, §10, §11

T1 sequence (Q15858 whole entry): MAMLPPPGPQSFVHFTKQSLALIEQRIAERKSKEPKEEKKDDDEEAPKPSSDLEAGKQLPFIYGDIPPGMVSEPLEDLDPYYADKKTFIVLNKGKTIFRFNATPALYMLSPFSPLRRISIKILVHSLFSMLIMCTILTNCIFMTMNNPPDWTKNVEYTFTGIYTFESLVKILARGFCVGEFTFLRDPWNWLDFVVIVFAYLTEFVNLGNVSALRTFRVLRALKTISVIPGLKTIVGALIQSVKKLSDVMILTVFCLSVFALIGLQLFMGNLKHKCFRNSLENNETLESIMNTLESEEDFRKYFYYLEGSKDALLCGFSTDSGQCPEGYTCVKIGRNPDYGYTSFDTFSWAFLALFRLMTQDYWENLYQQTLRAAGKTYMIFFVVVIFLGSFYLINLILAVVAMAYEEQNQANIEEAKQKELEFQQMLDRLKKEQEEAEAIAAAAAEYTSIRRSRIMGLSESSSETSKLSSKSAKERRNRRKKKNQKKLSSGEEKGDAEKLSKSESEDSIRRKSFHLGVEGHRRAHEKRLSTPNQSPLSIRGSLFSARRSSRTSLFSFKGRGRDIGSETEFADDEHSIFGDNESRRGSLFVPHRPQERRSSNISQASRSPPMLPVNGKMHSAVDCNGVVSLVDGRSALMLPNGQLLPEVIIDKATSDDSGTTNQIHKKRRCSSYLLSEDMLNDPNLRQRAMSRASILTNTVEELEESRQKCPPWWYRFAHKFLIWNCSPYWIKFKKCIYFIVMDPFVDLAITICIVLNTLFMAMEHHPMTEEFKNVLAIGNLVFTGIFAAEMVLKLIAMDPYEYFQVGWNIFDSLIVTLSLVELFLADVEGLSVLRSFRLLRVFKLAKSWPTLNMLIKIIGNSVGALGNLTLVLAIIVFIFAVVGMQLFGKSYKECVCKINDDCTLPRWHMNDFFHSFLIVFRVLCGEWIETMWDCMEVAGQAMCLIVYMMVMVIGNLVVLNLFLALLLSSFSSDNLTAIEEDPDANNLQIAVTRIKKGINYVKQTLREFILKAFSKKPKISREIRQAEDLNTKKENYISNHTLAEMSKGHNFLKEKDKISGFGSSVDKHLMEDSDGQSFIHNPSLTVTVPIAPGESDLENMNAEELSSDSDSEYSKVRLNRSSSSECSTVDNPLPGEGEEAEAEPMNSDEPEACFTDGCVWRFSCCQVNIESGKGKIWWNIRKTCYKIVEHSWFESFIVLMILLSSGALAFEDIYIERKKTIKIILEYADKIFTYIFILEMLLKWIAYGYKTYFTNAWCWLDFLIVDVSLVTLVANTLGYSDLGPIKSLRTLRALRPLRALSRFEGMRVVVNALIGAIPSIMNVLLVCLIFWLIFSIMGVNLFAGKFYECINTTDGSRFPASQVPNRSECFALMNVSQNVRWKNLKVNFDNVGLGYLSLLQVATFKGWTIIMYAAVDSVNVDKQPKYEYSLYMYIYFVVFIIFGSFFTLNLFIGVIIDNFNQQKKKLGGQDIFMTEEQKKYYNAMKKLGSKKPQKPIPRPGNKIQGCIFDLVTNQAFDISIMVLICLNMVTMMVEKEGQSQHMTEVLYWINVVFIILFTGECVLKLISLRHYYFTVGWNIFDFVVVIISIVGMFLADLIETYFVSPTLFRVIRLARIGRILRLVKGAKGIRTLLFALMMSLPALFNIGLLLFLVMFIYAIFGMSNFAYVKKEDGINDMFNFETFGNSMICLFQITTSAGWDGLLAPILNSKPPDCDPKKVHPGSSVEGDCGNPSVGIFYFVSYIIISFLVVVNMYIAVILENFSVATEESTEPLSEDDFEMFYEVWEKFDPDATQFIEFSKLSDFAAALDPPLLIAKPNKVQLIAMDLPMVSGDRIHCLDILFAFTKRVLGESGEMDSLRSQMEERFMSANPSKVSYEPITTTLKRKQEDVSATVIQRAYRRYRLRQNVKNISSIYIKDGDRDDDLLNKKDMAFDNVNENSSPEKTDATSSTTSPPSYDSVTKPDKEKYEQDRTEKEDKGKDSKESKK
T2 sequence (Q9Y5Y9 whole entry): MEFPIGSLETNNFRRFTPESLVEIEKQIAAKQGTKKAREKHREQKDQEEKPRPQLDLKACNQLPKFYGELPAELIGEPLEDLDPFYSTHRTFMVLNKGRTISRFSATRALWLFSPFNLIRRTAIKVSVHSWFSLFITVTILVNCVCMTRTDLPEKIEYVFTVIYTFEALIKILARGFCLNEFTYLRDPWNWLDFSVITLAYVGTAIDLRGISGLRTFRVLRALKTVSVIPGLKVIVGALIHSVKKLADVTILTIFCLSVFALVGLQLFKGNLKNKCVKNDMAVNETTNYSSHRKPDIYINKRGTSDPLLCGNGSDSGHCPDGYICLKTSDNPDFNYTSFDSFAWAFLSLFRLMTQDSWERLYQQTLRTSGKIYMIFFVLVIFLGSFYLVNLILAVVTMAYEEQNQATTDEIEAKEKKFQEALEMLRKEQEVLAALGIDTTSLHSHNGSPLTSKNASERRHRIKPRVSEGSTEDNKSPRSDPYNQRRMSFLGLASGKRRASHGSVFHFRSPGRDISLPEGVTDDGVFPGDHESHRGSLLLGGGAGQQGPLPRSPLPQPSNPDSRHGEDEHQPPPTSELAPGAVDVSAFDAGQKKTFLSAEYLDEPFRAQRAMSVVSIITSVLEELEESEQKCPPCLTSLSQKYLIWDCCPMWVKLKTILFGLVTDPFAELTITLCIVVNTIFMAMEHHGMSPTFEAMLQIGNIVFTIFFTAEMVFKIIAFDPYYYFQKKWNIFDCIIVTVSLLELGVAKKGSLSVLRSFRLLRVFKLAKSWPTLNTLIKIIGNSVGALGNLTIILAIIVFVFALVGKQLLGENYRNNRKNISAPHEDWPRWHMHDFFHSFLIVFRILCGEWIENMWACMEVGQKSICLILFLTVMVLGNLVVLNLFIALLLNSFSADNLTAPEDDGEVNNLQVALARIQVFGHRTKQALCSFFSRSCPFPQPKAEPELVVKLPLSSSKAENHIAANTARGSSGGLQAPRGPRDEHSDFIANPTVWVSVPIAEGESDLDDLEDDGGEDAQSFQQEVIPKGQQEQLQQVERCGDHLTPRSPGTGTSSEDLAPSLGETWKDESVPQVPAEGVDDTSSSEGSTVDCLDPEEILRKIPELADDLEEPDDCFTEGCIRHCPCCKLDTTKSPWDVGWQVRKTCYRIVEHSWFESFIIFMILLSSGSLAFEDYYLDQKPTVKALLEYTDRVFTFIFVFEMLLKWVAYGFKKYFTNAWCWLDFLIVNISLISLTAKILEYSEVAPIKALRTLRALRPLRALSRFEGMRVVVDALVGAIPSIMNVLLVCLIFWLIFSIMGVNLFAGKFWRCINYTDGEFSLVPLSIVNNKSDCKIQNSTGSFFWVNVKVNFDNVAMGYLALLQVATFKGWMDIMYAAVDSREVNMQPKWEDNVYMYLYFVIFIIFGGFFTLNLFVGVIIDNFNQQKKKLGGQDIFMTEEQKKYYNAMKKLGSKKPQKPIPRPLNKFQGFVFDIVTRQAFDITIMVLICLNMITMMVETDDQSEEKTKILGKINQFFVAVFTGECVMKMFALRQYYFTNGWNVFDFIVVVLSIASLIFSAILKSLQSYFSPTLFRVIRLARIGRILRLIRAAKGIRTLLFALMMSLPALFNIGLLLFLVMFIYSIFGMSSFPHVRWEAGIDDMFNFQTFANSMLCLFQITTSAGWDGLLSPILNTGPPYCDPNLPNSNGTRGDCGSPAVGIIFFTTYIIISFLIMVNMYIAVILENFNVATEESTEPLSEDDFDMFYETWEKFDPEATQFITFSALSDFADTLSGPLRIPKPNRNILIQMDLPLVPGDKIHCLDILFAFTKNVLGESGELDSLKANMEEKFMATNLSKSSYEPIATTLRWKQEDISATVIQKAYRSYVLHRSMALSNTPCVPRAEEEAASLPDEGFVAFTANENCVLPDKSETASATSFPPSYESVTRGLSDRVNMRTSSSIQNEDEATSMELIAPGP

| Compound | IC50 [1] [nM] | IC50 [2] [nM] |
| --- | --- | --- |
| CCOc1ccc(-c2cncc(C(=O)NN3Cc4ccc(OC)cc4C3)n2)cc1 [Compound 13, 6-(4-ethoxyphenyl)-N-(5-methoxyisoindolin-2-yl)pyrazine-2-carboxamide] | > 1000 | < 500 |
| CCOc1ccc(-c2cncc(C(=O)NNCc3cc(OC)ccc3C)n2)cc1 [Compound 14, 6-(4-ethoxyphenyl)-N′-(5-methoxy-2-methylbenzyl)pyrazine-2-carbohydrazide] | > 1000 | < 500 |
| CCOc1ccc(-c2cncc(C(=O)NNCc3cc(OC)ccc3F)n2)cc1 [Compound 15, 6-(4-ethoxyphenyl)-N′-(2-fluoro-5-methoxybenzyl)pyrazine-2-carbohydrazide] | > 1000 | < 500 |
| CCOc1ccc(-c2cncc(C(=O)NNCc3cccc(OC)c3)n2)cc1 [Compound 16, 6-(4-ethoxyphenyl)-N′-(3-methoxybenzyl)pyrazine-2-carbohydrazide] | > 1000 | < 500 |
| CCOc1ccc(-c2cncc(C(=O)NN(C)Cc3cc(OC)cc(OC)c3)n2)cc1 [Compound 17, N′-(3,5-dimethoxybenzyl)-6-(4-ethoxyphenyl)-N′-methylpyrazine-2-carbohydrazide] | > 1000 | > 1000 |
| CCOc1ccc(-c2cncc(C(=O)NNCc3cc(OC)cnc3C)n2)cc1 [Compound 18, 6-(4-ethoxyphenyl)-N′-((5-methoxy-2-methylpyridin-3-yl)methyl)pyrazine-2-carbohydrazide] | > 1000 | < 500 |
| CCOc1ccc(-c2cncc(C(=O)NNCc3ccccc3F)n2)cc1 [Compound 22, 6-(4-ethoxyphenyl)-N′-(2-fluorobenzyl)pyrazine-2-carbohydrazide] | > 1000 | < 500 |
| CCOc1ccc(-c2cncc(C(=O)NNCc3cc(OC)cnc3F)n2)cc1 [Compound 26, 6-(4-ethoxyphenyl)-N′-((2-fluoro-5-methoxypyridin-3-yl)methyl)pyrazine-2-carbohydrazide] | > 1000 | 500 to 1000 |
| CCOc1ccc(-c2cncc(C(=O)NNCc3cc(OC)cc(OC)c3)n2)c(F)c1 [Compound 27, N′-(3,5-dimethoxybenzyl)-6-(4-ethoxy-2-fluorophenyl)pyrazine-2-carbohydrazide] | > 1000 | < 500 |
| CCOc1ccc(-c2cncc(C(=O)NNCc3cc(OC)cc(OC)c3)n2)c(C)c1 [Compound 28, N′-(3,5-dimethoxybenzyl)-6-(4-ethoxy-2-methylphenyl)pyrazine-2-carbohydrazide] | > 1000 | < 500 |
| CCOc1ccc(-c2cncc(C(=O)NNCc3cc(OC)cc(OC)c3)n2)cn1 [Compound 29, N′-(3,5-dimethoxybenzyl)-6-(6-ethoxypyridin-3-yl)pyrazine-2-carbohydrazide] | > 1000 | 500 to 1000 |
| CCOc1ccc(-c2cncc(C(=O)NNCc3cccc(OC)c3)n2)cn1 [Compound 30, 6-(6-ethoxypyridin-3-yl)-N′-(3-methoxybenzyl)pyrazine-2-carbohydrazide] | > 1000 | < 500 |
| CCOc1ccc(-c2cncc(C(=O)NNCc3cc(OC)cnc3F)n2)cn1 [Compound 31, 6-(6-ethoxypyridin-3-yl)-N′-((2-fluoro-5-methoxypyridin-3-yl)methyl)pyrazine-2-carbohydrazide] | > 1000 | > 1000 |
| CCOc1ccc(-c2cncc(C(=O)NNCc3cc(OC)ccc3F)n2)cn1 [Compound 32, 6-(6-ethoxypyridin-3-yl)-N′-(2-fluoro-5-methoxybenzyl)pyrazine-2-carbohydrazide] | > 1000 | < 500 |
| CCOc1ccc(-c2cncc(C(=O)NNCc3cc(OC)ccc3C)n2)cn1 [Compound 33, 6-(6-ethoxypyridin-3-yl)-N′-(5-methoxy-2-methylbenzyl)pyrazine-2-carbohydrazide] | > 1000 | < 500 |
| CCOc1ccc(-c2cncc(C(=O)NNCc3cc(OC)cnc3C)n2)cn1 [Compound 34, 6-(6-ethoxypyridin-3-yl)-N′-((5-methoxy-2-methylpyridin-3-yl)methyl)pyrazine-2-carbohydrazide] | > 1000 | < 500 |
| CCOc1ccc(-c2cncc(C(=O)NNCc3ccccc3F)n2)cn1 [Compound 39, 6-(6-ethoxypyridin-3-yl)-N′-(2-fluorobenzyl)pyrazine-2-carbohydrazide] | > 1000 | < 500 |

The remaining lines, values ahead:

| IC50 [1] [nM] | IC50 [2] [nM] | Compound |
| --- | --- | --- |
| > 1000 | > 1000 | CCOc1ccc(-c2cncc(C(=O)NN[C@@H](C)c3cc(OC)cc(OC)c3)n2)cc1 (single isomer, unassigned) [Compound 24] |
| > 1000 | 500 to 1000 | CCOc1ccc(-c2cncc(C(=O)NN[C@H](C)c3cc(OC)cc(OC)c3)n2)cc1 (single isomer, unassigned) [Compound 25] |
| > 1000 | 500 to 1000 | COc1ccc(-c2cncc(C(=O)NNCc3cc(OC)cc(OC)c3)n2)cc1 [Compound 1, N′-(3,5-dimethoxybenzyl)-6-(4-methoxyphenyl)pyrazine-2-carbohydrazide] |
| > 1000 | > 1000 | COc1ccc(-c2cncc(C(=O)NNCc3ccc(Cl)cc3)n2)cc1 [Compound 2, N′-(4-chlorobenzyl)-6-(4-methoxyphenyl)pyrazine-2-carbohydrazide] |
| > 1000 | < 500 | COc1cc(CNNC(=O)c2cncc(-c3ccc(OC(C)C)cc3)n2)cc(OC)c1 [Compound 3, N′-(3,5-dimethoxybenzyl)-6-(4-isopropoxyphenyl)pyrazine-2-carbohydrazide] |
| > 1000 | > 1000 | O=C(NNCc1ccc(Cl)cc1)c1cncc(-c2ccc(OC3CC3)cc2)n1 [Compound 4, N′-(4-chlorobenzyl)-6-(4-cyclopropoxyphenyl)pyrazine-2-carbohydrazide] |
| > 1000 | > 1000 | O=C(NNCc1ccc(Cl)cc1)c1cncc(-c2ccc(Cl)cc2)n1 [Compound 5, N′-(4-chlorobenzyl)-6-(4-chlorophenyl)pyrazine-2-carbohydrazide] |
| > 1000 | > 1000 | O=C(NN1CCc2cc(Cl)ccc2C1)c1cncc(-c2ccc(Cl)cc2)n1 [Compound 6, N-(6-chloro-3,4-dihydroisoquinoline-2 (1H)-yl)-6-(4-chlorophenyl)pyrazine-2-carboxamide] |
| > 1000 | 500 to 1000 | COc1cc(CNNC(=O)c2cncc(-c3ccc(OC(F)F)cc3)n2)cc(OC)c1 [Compound 7, 6-(4-(difluoromethoxy)phenyl)-N′-(3,5-dimethoxybenzyl)pyrazine-2-carbohydrazide] |
| > 1000 | < 500 | COc1cc(CNNC(=O)c2cncc(-c3ccc(OC(F)F)nc3)n2)cc(OC)c1 [Compound 8, 6-(6-(difluoromethoxy)pyridin-3-yl)-N′-(3,5-dimethoxybenzyl)pyrazine-2-carbohydrazide] |
| > 1000 | > 1000 | CCOc1ccc(-c2cncc(C(=O)NNCc3ccc(Cl)cc3)n2)cc1 [Compound 9, N′-(4-chlorobenzyl)-6-(4-ethoxyphenyl)pyrazine-2-carbohydrazide] |
| 500 to 1000 | < 500 | CCOc1ccc(-c2cncc(C(=O)NNCc3cc(OC)cc(OC)c3)n2)cc1 [Compound 10, N′-(3,5-dimethoxybenzyl)-6-(4-ethoxyphenyl)pyrazine-2-carbohydrazide] |
| > 1000 | > 1000 | CCOc1ccc(-c2cncc(C(=O)NN3CCCc4ccc(OC)cc4C3)n2)cc1 [Compound 11, 6-(4-ethoxyphenyl)-N-(8-methoxy-1,3,4,5-tetrahydro-2H-benzo[c]azepin-2-yl)pyrazine-2-carboxamide] |
| > 1000 | > 1000 | CCOc1ccc(-c2cncc(C(=O)NN3CCOc4ccc(OC)cc4C3)n2)cc1 [Compound 12, 6-(4-ethoxyphenyl)-N-(7-methoxy-2,3-dihydrobenzo[f][1,4]oxazepine-4(5H)-yl)pyrazine-2-carboxamide] |
